Measured values: PubChem BioAssay AID1918994 (Molecular Pharmacology Branch, DTP, NCI, 2023)
Where “and” joins values, the source holds several entries; their conditions need not be identical. Identical values can stand only once.

Test system: 292921-168-R-J2-PDC complex spheroid growth
Assay: Anticancer human tumor 292921-168-R-J2-PDC patient-derived pancreatic carcinoma cell line growth inhibition [AhR]
Conditions: for viability, T/C: stronger effect = lower value
Outline: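 Agents were dosed in half-log steps down from roughly clinical Cmax, or from 10 microM where Cmax was unknown, alone and with AhR antagonists. Read-out: percent test/control growth of tumor spheroids containing HUVEC and MSC stromal cells.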

[1] = curve of first compound, second compound 0.1 µM
[2] = curve of first compound, second compound 0.316 µM
[3] = curve of first compound, second compound 1 µM
[4] = curve of first compound, second compound 3.16 µM
[5] = curve of first compound, second compound 10 µM
[6] = second compound 0.1 µM, first compound 0.0316 µM
[7] = second compound 0.1 µM, first compound 0.1 µM
[8] = second compound 0.1 µM, first compound 0.316 µM
[9] = second compound 0.1 µM, first compound 1 µM
[10] = second compound 0.1 µM, first compound 3.16 µM
[11] = second compound 0.1 µM, first compound 10 µM
[12] = second compound 0.316 µM, first compound 0.0316 µM
[13] = second compound 0.316 µM, first compound 0.1 µM
[14] = second compound 0.316 µM, first compound 0.316 µM
[15] = second compound 0.316 µM, first compound 1 µM
[16] = second compound 0.316 µM, first compound 3.16 µM
[17] = second compound 0.316 µM, first compound 10 µM
[18] = second compound 1 µM, first compound 0.0316 µM
[19] = second compound 1 µM, first compound 0.1 µM
[20] = second compound 1 µM, first compound 0.316 µM
[21] = second compound 1 µM, first compound 1 µM
[22] = second compound 1 µM, first compound 3.16 µM
[23] = second compound 1 µM, first compound 10 µM
[24] = second compound 3.16 µM, first compound 0.0316 µM
[25] = second compound 3.16 µM, first compound 0.1 µM
[26] = second compound 3.16 µM, first compound 0.316 µM
[27] = second compound 3.16 µM, first compound 1 µM
[28] = second compound 3.16 µM, first compound 3.16 µM
[29] = second compound 3.16 µM, first compound 10 µM
[30] = second compound 10 µM, first compound 0.0316 µM
[31] = second compound 10 µM, first compound 0.1 µM
[32] = second compound 10 µM, first compound 0.316 µM
[33] = second compound 10 µM, first compound 1 µM
[34] = second compound 10 µM, first compound 3.16 µM
[35] = second compound 10 µM, first compound 10 µM
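Further: spheroids exposed to compounds for seven days after three days of growth.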

| SMILES | IC50 [1] [nM] | IC50 [2] [nM] | IC50 [3] [nM] | IC50 [4] [nM] | IC50 [5] [nM] | viability, T/C [6] [%] | viability, T/C [7] [%] | viability, T/C [8] [%] | viability, T/C [9] [%] | viability, T/C [12] [%] | viability, T/C [13] [%] | viability, T/C [14] [%] | viability, T/C [15] [%] | viability, T/C [18] [%] | viability, T/C [19] [%] | viability, T/C [20] [%] | viability, T/C [21] [%] | viability, T/C [24] [%] | viability, T/C [25] [%] | viability, T/C [26] [%] | other results |
| --- | --- | --- | --- | --- | --- | --- | --- | --- | --- | --- | --- | --- | --- | --- | --- | --- | --- | --- | --- | --- | --- |
| CC1(C)CCC(CN2CCN(c3ccc(C(=O)NS(=O)(=O)c4ccc(NCC5CCOCC5)c([N+](=O)[O-])c4)c(Oc4cnc5[nH]ccc5c4)c3)CC2)=C(c2ccc(Cl)cc2)C1 + Cc1ccccc1N=Nc1ccc(NC(=O)c2ccnn2C)c(C)c1 | 6350 | 6290 | 6070 | 5510 | 4730 | 91.2 | 90.5 | 109 | 103 | 88.3 | 89.3 | 97.4 | 96 | 96.8 | 101 | 77.8 | 95.1 | 79.8 | 77.3 | 75.3 | viability, T/C [10]: 112%; viability, T/C [11]: 16.8%; viability, T/C [16]: 108%; viability, T/C [17]: 19%; viability, T/C [22]: 100%; viability, T/C [23]: 16.2%; viability, T/C [27]: 84%; viability, T/C [28]: 96.4%; viability, T/C [29]: 15.1%; viability, T/C [30]: 65.4%; viability, T/C [31]: 63.5%; viability, T/C [32]: 53.9%; viability, T/C [33]: 72.5%; viability, T/C [34]: 77.6%; viability, T/C [35]: 19.3% |
| COc1cc(Nc2ncc3c(n2)-c2ccc(Cl)cc2C(c2c(F)cccc2OC)=NC3)ccc1C(=O)O |  |  |  |  |  |  |  |  |  |  |  |  |  |  |  |  |  |  |  |  | viability, T/C (compound 0.0316 µM): 53.9% and 45.2% and 56.9%; viability, T/C (compound 0.1 µM): 49.2% and 45% and 39.5%; viability, T/C (compound 0.316 µM): 49.9% and 53.6% and 45.8%; viability, T/C (compound 1 µM): 57.9% and 51.2% and 43%; viability, T/C (compound 3.16 µM): 49.8% and 40.5% and 41.5%; viability, T/C (compound 10 µM): 41.7% and 31.2% and 30.7% |
| O=C(C=Cc1cccc(S(=O)(=O)Nc2ccccc2)c1)NO + Cc1ccccc1N=Nc1ccc(NC(=O)c2ccnn2C)c(C)c1 | 579 | 697 | 520 | 285 | < 31.6 | 69 | 64 | 52 | 39.7 | 74.9 | 68.2 | 55.4 | 43.2 | 68.8 | 59.1 | 54.8 | 38.8 | 65.8 | 49 | 49.1 | viability, T/C [10]: 38.2%; viability, T/C [11]: 3.35%; viability, T/C [16]: 36.9%; viability, T/C [17]: 6.05%; viability, T/C [22]: 36.1%; viability, T/C [23]: 3.74%; viability, T/C [27]: 34.9%; viability, T/C [28]: 35.2%; viability, T/C [29]: 2.03%; viability, T/C [30]: 44.2%; viability, T/C [31]: 41.6%; viability, T/C [32]: 36.9%; viability, T/C [33]: 33.8%; viability, T/C [34]: 29.1%; viability, T/C [35]: 4.17% |
| Nc1ncn(C2CC(O)C(CO)O2)c(=O)n1 (configuration not stated) + Cc1ccccc1N=Nc1ccc(NC(=O)c2ccnn2C)c(C)c1 | > 1000 | > 1000 | > 1000 | > 1000 | > 1000 | 101 | 86 | 73.5 | 72.9 | 87 | 76.5 | 76 | 78.6 | 84.2 | 79.6 | 77.2 | 72.4 | 66.3 | 72.2 | 63 | viability, T/C (second compound 0.1 µM, first compound 0.00316 µM): 90.2%; viability, T/C (second compound 0.1 µM, first compound 0.01 µM): 94.2%; viability, T/C (second compound 0.316 µM, first compound 0.00316 µM): 96.9%; viability, T/C (second compound 0.316 µM, first compound 0.01 µM): 86.9%; viability, T/C (second compound 1 µM, first compound 0.00316 µM): 80.1%; viability, T/C (second compound 1 µM, first compound 0.01 µM): 104%; viability, T/C (second compound 3.16 µM, first compound 0.00316 µM): 80.2%; viability, T/C (second compound 3.16 µM, first compound 0.01 µM): 82.7%; viability, T/C [27]: 55.6%; viability, T/C (second compound 10 µM, first compound 0.00316 µM): 63%; viability, T/C (second compound 10 µM, first compound 0.01 µM): 65.3%; viability, T/C [30]: 58.7%; viability, T/C [31]: 61.6%; viability, T/C [32]: 62.8%; viability, T/C [33]: 45% |
| Nc1ccccc1NC(=O)c1ccc(CNC(=O)OCc2cccnc2)cc1 |  |  |  |  |  |  |  |  |  |  |  |  |  |  |  |  |  |  |  |  | viability, T/C (compound 0.0316 µM): 76.9% and 70.7% and 72.6%; viability, T/C (compound 0.1 µM): 61.6% and 61% and 53%; viability, T/C (compound 0.316 µM): 44.2% and 57.2% and 42.1%; viability, T/C (compound 1 µM): 38.7% and 39.4% and 26.1%; viability, T/C (compound 3.16 µM): 24.4% and 26.4% and 21.3%; viability, T/C (compound 10 µM): 11.8% and 10.3% and 8.62%; IC50 (curve of compound): 267 nM and 460 nM and 151 nM |
| Cc1cncc(-c2nc(NCCc3c[nH]c4ccccc34)c3ncn(C(C)C)c3n2)c1 |  |  |  |  |  |  |  |  |  |  |  |  |  |  |  |  |  |  |  |  | viability, T/C (compound 0.1 µM): 90.8% [middle of 20 runs]; viability, T/C (compound 0.316 µM): 89.1% [middle of 20 runs]; viability, T/C (compound 1 µM): 80.5% [middle of 20 runs]; viability, T/C (compound 10 µM): 47.8% [middle of 20 runs] |

Now from value to compound, other results behind:

| IC50 [1] [nM] | IC50 [2] [nM] | IC50 [3] [nM] | IC50 [4] [nM] | IC50 [5] [nM] | SMILES | viability, T/C [6] [%] | viability, T/C [7] [%] | viability, T/C [8] [%] | viability, T/C [9] [%] | viability, T/C [12] [%] | viability, T/C [13] [%] | viability, T/C [14] [%] | viability, T/C [15] [%] | viability, T/C [18] [%] | viability, T/C [19] [%] | viability, T/C [20] [%] | viability, T/C [21] [%] | viability, T/C [24] [%] | viability, T/C [25] [%] | viability, T/C [26] [%] | other results |
| --- | --- | --- | --- | --- | --- | --- | --- | --- | --- | --- | --- | --- | --- | --- | --- | --- | --- | --- | --- | --- | --- |
| > 10000 | > 10000 | > 10000 | > 10000 | > 10000 | O=C(c1cc(Cc2n[nH]c(=O)c3ccccc23)ccc1F)N1CCN(C(=O)C2CC2)CC1 + CC(CO)NC(=O)c1cc(-c2ccc(Cl)cc2)nn(-c2cnn(C)c2)c1=O | 100 | 96.1 | 92.4 | 98.8 | 97.4 | 98.4 | 99.4 | 90.1 | 90.3 | 103 | 94.7 | 90.2 | 85.9 | 86 | 81.8 | viability, T/C [10]: 78.4%; viability, T/C [11]: 64%; viability, T/C [16]: 74.3%; viability, T/C [17]: 66.7%; viability, T/C [22]: 78.2%; viability, T/C [23]: 66.2%; viability, T/C [27]: 83.7%; viability, T/C [28]: 70.8%; viability, T/C [29]: 55.9%; viability, T/C [30]: 67.5%; viability, T/C [31]: 62.8%; viability, T/C [32]: 67.1%; viability, T/C [33]: 63.4%; viability, T/C [34]: 56.6%; viability, T/C [35]: 49% |
| < 31.6 | < 31.6 | < 31.6 | < 31.6 | < 31.6 | COc1cc(Nc2ncc3c(n2)-c2ccc(Cl)cc2C(c2c(F)cccc2OC)=NC3)ccc1C(=O)O + Cc1cncc(-c2nc(NCCc3c[nH]c4ccccc34)c3ncn(C(C)C)c3n2)c1 | 50.6 | 45 | 50 | 45.6 | 49.9 | 43.3 | 52 | 45.9 | 46.7 | 40.3 | 47.8 | 44.3 | 44.6 | 38.7 | 42.4 | viability, T/C [10]: 46.1%; viability, T/C [11]: 33.5%; viability, T/C [16]: 46.5%; viability, T/C [17]: 33.2%; viability, T/C [22]: 41.9%; viability, T/C [23]: 30.4%; viability, T/C [27]: 39.3%; viability, T/C [28]: 35.5%; viability, T/C [29]: 28%; viability, T/C [30]: 40.4%; viability, T/C [31]: 35%; viability, T/C [32]: 38.5%; viability, T/C [33]: 35.4%; viability, T/C [34]: 32.4%; viability, T/C [35]: 26.3% |
